# Values joined by “and” are separate entries in the source; they are usually repeats but may differ in a detail not shown here. Equal values may be shown once. Square brackets hold non-standard residues; d marks the D form. Peptide text beside a SMILES is read from it. pY = N[C@@H](Cc1ccc(OP(=O)(O)O)cc1)C(=O)O
# Experiments:
# DLAR D2 = molecular target: T1, DLAR D2 (Drosophila melanogaster, UniProt P16621); assay: Surface Plasmon Resonance peptide binding, DLAR D2; details: column second binding site, single-site model
# T1 construct: DLAR 1728-2029; His tag (pET-15b or pET-22b); made in house; host or cells: E. coli BL21(DE3)
# T1 sequence (P16621 1728-2029): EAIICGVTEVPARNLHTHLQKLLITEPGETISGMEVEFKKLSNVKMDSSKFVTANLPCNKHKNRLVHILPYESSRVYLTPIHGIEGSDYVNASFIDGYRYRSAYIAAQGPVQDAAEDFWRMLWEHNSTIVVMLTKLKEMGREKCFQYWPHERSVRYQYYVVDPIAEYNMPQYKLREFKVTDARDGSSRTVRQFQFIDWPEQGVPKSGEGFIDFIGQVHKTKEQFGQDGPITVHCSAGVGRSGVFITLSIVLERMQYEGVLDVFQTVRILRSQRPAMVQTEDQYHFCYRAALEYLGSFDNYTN
# Protocol: The binding of phosphotyrosine peptides to the PTP domains was studied by Surface Plasmon Resonance on a Biacore-2000 instrument (BIAcore, AB). All experiments were conducted at 25°C. DLAR PTP domains were immobilized onto carboxylated dextran CM5 chips (BIAcore AB) using the standard amine coupling procedure as recommended by the manufacturer. Binding and kinetic assays were performed in 10 mM HEPES, pH 8.0, 150 mM NaCl, 10 mM DTT and 3 mM EDTA at a flow rate of 5 µL/min. The peptides were used at concentrations ranging from 50–700 µM. Dissociation was initiated by replacing the analyte with buffer. The association and dissociation curves were monitored for 600 sec. Sensograms were analyzed with BIA-evaluation software version 2 (BIAcore AB). Sensograms for DLAR D1D2, DLAR D1HSSD2 and DLAR D1D2HSS were fitted to two-site binding equations. DLAR D1 and DLAR D2 sensograms were fitted using a single-site binding model.
# PTP99A D1 = molecular target: T2, PTP99A D1 (Drosophila melanogaster, UniProt P35832); assay: Phosphatase assay using pNPP, PTP99A D1; type: biochemical; design: PTP99A 450-756; His tag (pET-15b or pET-22b); made in house; host or cells: E. coli BL21(DE3); details: CGH buffer pH 6.5, 100 mM NaCl, 2 mM DTT
# T2 sequence (P35832 450-756): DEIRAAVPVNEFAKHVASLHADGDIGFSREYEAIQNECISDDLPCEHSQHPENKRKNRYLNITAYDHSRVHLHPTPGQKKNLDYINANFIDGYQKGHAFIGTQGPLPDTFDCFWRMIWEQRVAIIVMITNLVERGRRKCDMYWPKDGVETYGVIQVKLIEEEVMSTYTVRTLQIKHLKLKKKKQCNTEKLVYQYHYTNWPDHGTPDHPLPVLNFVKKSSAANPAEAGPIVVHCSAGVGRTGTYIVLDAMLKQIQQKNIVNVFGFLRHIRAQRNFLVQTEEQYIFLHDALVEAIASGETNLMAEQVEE
# Protocol: (§1) Phosphatase activity of the recombinant PTP domains was determined by using para-Nitrophenylphosphate (pNPP), a small molecule generic substrate, as well as phosphotyrosine containing peptides. The pNPP assay was performed as reported previously, with a modification in the buffer composition (25 mM Citrate, Glycine and HEPES (CGH), pH 6.5, 100 mM NaCl and 2 mM DTT). Phosphatase activity with the phosphotyrosine peptides was ascertained by the malachite green reaction as described for PTPs previously. Briefly, the reaction mixture comprised of 0.01 µM protein incubated with increasing concentrations of different peptides in 25 mM citrate buffer pH 6.0, 100 mM NaCl and 2 mM DTT for 15 min at 25°C. The reaction was stopped by the addition of the Biomol Green reagent (Enzo Life Sciences) and the colour developed after 20 min was quantified at 650 nm. For all the assays, kinetic constants for the steady state catalysis were obtained by fitting the reaction curves to the Michaelis-Menten equation using the nonlinear regression module of Sigma plot software (Systat Software, Inc.).
# The tandem PTP domains of PTP99A (PTP99A D1D2) and DLAR (DLAR D1D2) , the individual PTP domains (D1 and D2) as well as the active site mutants were expressed in E. coli and were purified using the protocols described earlier (Figure 1a, Figure S1a, b & c). […]
# PTP99A D2 = molecular target: T3, PTP99A D2 (Drosophila melanogaster, UniProt P35832); assay: Phosphatase assay using pNPP, PTP99A D2; type: biochemical; details: CGH buffer pH 6.5
# T3 sequence (P35832 740-1050): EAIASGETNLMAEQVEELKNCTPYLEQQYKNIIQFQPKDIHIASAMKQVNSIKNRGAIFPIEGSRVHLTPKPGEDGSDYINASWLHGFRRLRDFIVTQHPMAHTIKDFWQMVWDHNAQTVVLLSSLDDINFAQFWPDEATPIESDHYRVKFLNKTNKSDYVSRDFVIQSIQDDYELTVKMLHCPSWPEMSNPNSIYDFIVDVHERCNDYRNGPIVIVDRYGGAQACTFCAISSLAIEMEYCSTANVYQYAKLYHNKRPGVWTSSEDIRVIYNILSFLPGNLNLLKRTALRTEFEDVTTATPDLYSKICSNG
# Protocol: as §1
SMILES,"kon (DLAR D2; SPR Biacore-2000, 25°C, 10 mM HEPES pH 8.0, 150 mM NaCl, 10 mM DTT, 3 mM EDTA, peptides 50–700 µM, read-out: ka)","Kd (DLAR D2; SPR, 25°C, pH 8.0)",Kcat (PTP99A D1),Vmax (PTP99A D1; Michaelis-Menten fit),PTPase activity (PTP99A D2)
CC(C)C[C@H](NC(=O)[C@H](C)NC(=O)CNC(=O)[C@H](Cc1ccc(OP(=O)(O)O)cc1)NC(=O)[C@H](CC(=O)O)NC(=O)[C@@H]1CCCN1C(=O)[C@H](CCC(=O)O)NC(=O)[C@H](C)NC(=O)[C@@H](N)[C@@H](C)O)C(=O)N[C@@H](Cc1ccc(O)cc1)C(=O)N[C@@H](CCC(=O)O)C(=O)O [Cuticle peptide] (H-TAEPD[pY]GALYE-OH),52.8 ± 0.69 M⁻¹ s⁻¹,104.5 ± 0.06 µM,,,
"O=[N+]([O-])c1ccc(OP(=O)(O)O)cc1 [pNPP, para-Nitrophenylphosphate]",,,0.14 ± 0.01 s⁻¹,0.22 µmol/min/mg and 0.22 ± 0.01 µmol/min/mg,no detectable activity
